Like-named read-outs stand apart in the source and are kept apart here.

Data set [1] can be described thus: Competition experiment for crystalline forms A, C, and D in suspension. The format is physicochemical. To be noted: aw 0.2-1; stirring at room temperature, 8 days; XRPD. On the procedure: The starting material obtained in step 1 of Example 1 was added to the corresponding volume of solvent, and then allowed to suspend under stirring at room temperature for 2 h. The suspension was filtered with a 0.4 μm PTFE filter membrane to obtain a saturated solution. About 3 mg samples of crystalline forms A, C, and D were separately weighed and transferred to HPLC vials, to which was added 1 mL of saturated solution, and then the mixture was allowed to suspend under stirring at room temperature. After 8 days, the suspension was filtered to obtain the solid, and the change in crystalline form was identified by XRPD analysis.

The format of data set [2] is physicochemical. To be noted: for Purity (area): HPLC. Here is the method:
The samples of crystalline forms A and D were stored in an opened bottle for one week under 25° C./60% RH and 40° C./75% RH conditions, respectively. The physical and chemical stability of the samples was detected by XRPD and HPLC.

A short description of data set [3]: Pressure stability testing (tableting at 10 kN). The format is physicochemical. To be noted: 10 kN pressure; for Adhesion percentage: (ML-MT)/ML×100%; for Tensile strength T: T=2H/πDt; for Crystalline form after pressing: XRPD of crushed sample; for Tablet diameter D / Tablet thickness t: after 24 h elastic recovery; for Adhesion amount: powder adhesive to the punch; for Hardness H: radial crushing strength. On the procedure:
100 mg samples of crystalline forms A and D were respectively added to […] of round flat punch, and then pressed into circular tablets using 10 kN pressure. The loading mass (ML) and tablet mass (MT) were recorded, and then the formula ma=(ML-MT)/ML×100% was used to calculate the mass percentage (ma) of the powder adhesive to the punch; the pressed tablets were kept in a dryer for 24 h for elastic recovery. After elastic recovery, the diameter (D) and thickness (t) of the tablet were measured using a vernier caliper. The radial crushing strength (hardness, H) was measured using a tablet hardness tester, and the XRPD pattern of the crushed sample was also tested.

The nature of data set [4]: Grinding stability testing (XRPD). The format is physicochemical. To be noted: 50 mg manually ground. Here is the method: 50 mg samples of crystalline form A and crystalline form D were manually ground, and then detected by XRPD.
Data set [5] can be described thus: Stability of crystalline form G on heating and on exposure after opening the cover. The format is physicochemical. The conditions noted are these: cover opened and kept for 1 h.
The conditions of data set [6]: previous studies, CN2021110940333; cited from earlier work.
A short description of data set [7]: Hygroscopicity test (dynamic vapor sorption, DVS). The format is physicochemical. Here is the method:
The mass change percentage of crystalline form A was tested using dynamic vapor sorption (DVS) under constant temperature conditions of 25° C. and various humidity conditions, with a humidity change of 30% RH to 95% RH to 0% RH to 95% RH.
Crystalline form A had good physical stability.

The mark [8] stands for this setting: One week, 25° C./60% RH and 40° C./75% RH.

Consider `CC(CC(=O)[O-])C1CCC2C3C(O)CC4CC(O)CCC4(C)C3CCC12C.COc1ccc2cc3[n+](cc2c1OC)CCc1cc2c(cc1-3)OCO2` (stereo not drawn) [Crystalline form C, nor-ursodeoxycholic berberine salt], for which, in data set [1], the “Solid form obtained after competition in suspension” value is “transition to form A”.

`CC(CC(=O)[O-])C1CCC2C3C(O)CC4CC(O)CCC4(C)C3CCC12C.COc1ccc2cc3[n+](cc2c1OC)CCc1cc2c(cc1-3)OCO2` (stereo not drawn) [Crystalline form D, nor-ursodeoxycholic berberine salt]: the “Change of crystal structure / crystalline form (physical stability)” value in data set [2] is on record as “not obviously changed”. Also, the “Purity (area)” value in data set [2] (Initial) is listed as 98.61%. Besides, in data set [2] (One week, 25° C./60% RH), the Purity decrease is given as 0.37%, the “Relative purity percentage (vs initial purity)” value (“Relative purity percentage” for short) was found to be 99.63% and the “Purity (area)” value came out at 98.24%. In data set [2] (setting [8]), the Crystallinity after storage result is on record as “the crystallinity decreased” and the “Sample appearance after storage” value is recorded as “turned dark brown”. Moreover, in data set [2] (One week, 40° C./75% RH), the Purity decrease is reported as 0.62%, the “Relative purity percentage” value amounted to 99.37% and the “Purity (area)” value is 97.99%. Moreover, in data set [3], the Tablet mass worked out at 96.9 mg, the Adhesion percentage is 3.3%, the “Tensile strength T” value is 1.69 MPa and the “Crystalline form after pressing” value was “remained unchanged”. Besides, in data set [3], the “Tablet diameter D” value is reported as 6.02 mm, the Tablet thickness t is recorded as 2.90 mm, the Adhesion amount is 3.3 mg and the “Hardness H” value is reported as 46.31 N. Besides, in data set [4], the “Crystalline form after grinding” value is on record as “transformed into amorphous”.

In the case of `CC(CC(=O)[O-])C1CCC2C3C(O)CC4CC(O)CCC4(C)C3CCC12C.COc1ccc2cc3[n+](cc2c1OC)CCc1cc2c(cc1-3)OCO2` (stereo not drawn) [Crystalline form G, nor-ursodeoxycholic berberine salt], in data set [5], the “Crystalline form after opening the cover” value is on record as “turned back into form A”.

Turning to nor-ursodeoxycholic berberine salt, in data set [6], the “Alanine aminotransferase (ALT)” value is recorded as “significantly reduce”, the “Alkaline phosphatase (ALP)” value is given as “significantly reduce”, the “Glutamic oxaloacetic transaminase (AST)” value was “significantly reduce” and the “Liver pathological damage (such as hepatic steatosis)” value was “significant improvement effect”. For the same compound, in data set [6], the “Therapeutic effect on fatty liver, liver fibrosis, and cirrhosis versus HTD1801” value is recorded as “significantly better than that of HTD1801”; the “Therapeutic effect on fatty liver, liver fibrosis, and cirrhosis versus individual norUDCA and berberine hydrochloride” value was “superior to the sum of the effects produced by individual norUDCA and berberine hydrochloride”.

On to “nor-ursodeoxycholic berberine salt [Crystalline form A]”, for which, in data set [2], the “Change of crystal structure / crystalline form (physical stability)” value is given as “the crystal structure was not changed” and the “Purity change (chemical stability)” value is reported as “not changed significantly”. Also, the “Purity (area)” value in data set [2] (Initial) is reported as 99.26%. Besides, in data set [2] (One week, 25° C./60% RH), the “Relative purity percentage” value amounted to 100.0% and the “Purity (area)” value is reported as 99.24%. Moreover, in data set [2] (One week, 40° C./75% RH), the “Relative purity percentage” value amounted to 100.0% and the “Purity (area)” value was determined as 99.23%. Moreover, the Water adsorption rate in data set [7] (DVS, 25° C., 80% RH) is reported as 8.7%. In data set [7] (DVS, 25° C., after the relative humidity reached 10%), the Water absorption behaviour result is given as “slowly absorbed water”. In addition, in data set [7] (DVS, 25° C., relative humidity range of 0% to 10%), the Water absorption behaviour result is reported as “rapidly absorbed water”. Further, the “Crystalline form before and after DVS testing” value in data set [7] (XRPD after DVS) is “did not change”. For the same compound, in data set [3], the Tablet mass is 103.2 mg, the Adhesion percentage is on record as 1.6%, the “Tensile strength T” value is 2.38 MPa and the “Crystalline form after pressing” value is recorded as “remained unchanged”. For the same compound, in data set [3], the “Tablet diameter D” value is listed as 6.02 mm, the Tablet thickness t was determined as 2.90 mm, the Adhesion amount is recorded as 1.7 mg and the “Hardness H” value is 65.37 N. Further, in data set [4], the “Crystalline form after grinding” value is recorded as “remained unchanged” and the Crystallinity after grinding entry is given as “the crystallinity decreased”.

The values above are taken from patent US20250101058A1, “CRYSTAL FORM OF HIGH-STABILITY NOR-URSODEOXYCHOLIC BERBERINE SALT, AND PREPARATION METHOD THEREFOR” (CHENGDU BIOBEL BIOTECHNOLOGY CO., LTD, priority 2022, published 2025).
